The values below come from patent US7772245B2, “Inhibitors of histone deacetylase” (Miikana Therapeutics, Inc., priority 2005, dated 2010).

In assay [1] the test system is HCT116 cells. Nature of the assay: Whole cell cytotoxicity assay: Sulforhodamine B. The assay is classed as cell-based. Conditions: Homo sapiens, HCT-116; 100 μM compound; 48 hours incubation with drug; Sulforhodamine B staining; read-out: % Inhibition of HCT116 cell growth @ 100 μM. (Sulforhodamine B stains cellular protein and so reports cell mass.)
In assay [2] the test system is HDAC. In words: In vitro fluorescent histone deacetylase assay (Biomol HDAC fluorescent activity kit, HeLa cell nuclear extract). The assay is classed as biochemical. Conditions: 100 μM compound; HeLa cell nuclear extract as source of HDAC activity; 50 μM substrate, 10 min at room temperature. A digest of the protocol: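 HeLa nuclear extract as HDAC source with fluorogenic substrate at 50 μM final, reacting 10 min at room temperature before stop. Compounds serially diluted in assay buffer, final DMSO ≤2%; fluorescence read at ex 355 nm / em 460 nm.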

For the compound `CC(=O)n1c2c(c3cc(C)ccc31)CN(c1ncc(C(=O)NO)cn1)CC2` [Example 74, N-hydroxy-2-{5-acetyl-8-methyl-1,3,4,5-tetrahydro-2H-pyrido[4,3-b]indol-2-yl}pyrimidine-5-carboxamide], the inhibition at 100 µM in assay [1] amounted to 93.6%. Besides, the “% Inhibition of HDAC @ 100 μM” value in assay [2] is given as 99.1%.

For the compound `Cc1ccc2c(c1)C1CN(c3ncc(C(=O)NO)cn3)CCC1N2` (centres unmarked) [Example 75, N-hydroxy-2-(8-methyl-1,3,4,4a,5,9b-hexahydro-2H-pyrido[4,3-b]indol-2-yl)pyrimidine-5-carboxamide], in assay [1], the inhibition at 100 µM stood at 98.4%. Also, the “% Inhibition of HDAC @ 100 μM” value in assay [2] came to 99.9%.

Regarding `Nc1ccc2[nH]c3c(c2c1)CN(c1ncc(C(=O)NO)cn1)CC3` [Example 76, N-hydroxy-2-(8-amino-1,3,4,5-tetrahydro-2H-pyrido[4,3-b]indol-2-yl)pyrimidine-5-carboxamide], the inhibition at 100 µM in assay [1] came out at 98.9%. Further, the “% Inhibition of HDAC @ 100 μM” value in assay [2] came out at 100%.

With `CS(=O)(=O)Nc1ccc2[nH]c3c(c2c1)CN(c1ncc(C(=O)NO)cn1)CC3` [Example 78, N-hydroxy-2-(8-(N-methylsulfonamido)-1,3,4,5-tetrahydro-2H-pyrido[4,3-b]indol-2-yl)pyrimidine-5-carboxamide], the inhibition at 100 µM in assay [1] turned out to be 85.1%. In addition, in assay [2], the “% Inhibition of HDAC @ 100 μM” value is 99.9%.

On to `C[S+]([O-])c1cccc(-c2ccc3[nH]c4c(c3c2)CN(c2ncc(C(=O)NO)cn2)CC4)c1` (centres unmarked) [Example 79, N-hydroxy-2-{8-[3-(methylsulfinyl)phenyl]-1,3,4,5-tetrahydro-2H-pyrido[4,3-b]indol-2-yl}pyrimidine-5-carboxamide], for which the inhibition at 100 µM in assay [1] amounted to 95.7%. For the same compound, the “% Inhibition of HDAC @ 100 μM” value in assay [2] worked out at 100%.

`CC(=O)NCc1cccc(-c2ccc3[nH]c4c(c3c2)CN(c2ncc(C(=O)NO)cn2)CC4)c1` [Example 82, N-hydroxy-2-{8-[3-(N-acetamidomethyl)phenyl]-1,3,4,5-tetrahydro-2H-pyrido[4,3-b]indol-2-yl}pyrimidine-5-carboxamide]: the inhibition at 100 µM in assay [1] is 97%. The “% Inhibition of HDAC @ 100 μM” value in assay [2] came to 99.9%.

`CS(=O)(=O)NCc1cccc(-c2ccc3[nH]c4c(c3c2)CN(c2ncc(C(=O)NO)cn2)CC4)c1` [Example 83, N-hydroxy-2-{8-[3-(N-methylsulfonamidomethyl)phenyl]-1,3,4,5-tetrahydro-2H-pyrido[4,3-b]indol-2-yl}pyrimidine-5-carboxamide]: the inhibition at 100 µM in assay [1] amounted to 94.7%. In assay [2], the “% Inhibition of HDAC @ 100 μM” value was determined as 99.9%.

With `O=C(NO)c1cnc(N2CCc3[nH]c4ccc(-c5cccc(-c6nnn[nH]6)c5)cc4c3C2)nc1` [Example 84, N-hydroxy-2-{8-[3-(1H-tetrazol-5-yl)phenyl]-1,3,4,5-tetrahydro-2H-pyrido[4,3-b]indol-2-yl}pyrimidine-5-carboxamide], in assay [1], the inhibition at 100 µM was determined as 93.2%. In assay [2], the “% Inhibition of HDAC @ 100 μM” value is 99.9%.

For the compound `Nc1cccc(-c2ccc3[nH]c4c(c3c2)CN(c2ncc(C(=O)NO)cn2)CC4)c1` [Example 86, N-hydroxy-2-{8-[3-aminophenyl]-1,3,4,5-tetrahydro-2H-pyrido[4,3-b]indol-2-yl}pyrimidine-5-carboxamide], the inhibition at 100 µM in assay [1] stood at 99.1%. The “% Inhibition of HDAC @ 100 μM” value in assay [2] came to 100%.

On to `CC(=O)Nc1cccc(-c2ccc3[nH]c4c(c3c2)CN(c2ncc(C(=O)NO)cn2)CC4)c1` [Example 87, N-hydroxy-2-{8-[3-(N-acetamido)phenyl]-1,3,4,5-tetrahydro-2H-pyrido[4,3-b]indol-2-yl}pyrimidine-5-carboxamide], for which the inhibition at 100 µM in assay [1] is 83.1%. Also, the “% Inhibition of HDAC @ 100 μM” value in assay [2] turned out to be 100%.

As for `O=C(NO)c1cnc(N2CCc3[nH]c4ccc(-c5cccc(CN6CCOCC6)c5)cc4c3C2)nc1` [Example 90, N-hydroxy-2-{8-[3-(morpholin-4-ylmethyl)phenyl]-1,3,4,5-tetrahydro-2H-pyrido[4,3-b]indol-2-yl}pyrimidine-5-carboxamide], the inhibition at 100 µM in assay [1] stood at 93.1%. The “% Inhibition of HDAC @ 100 μM” value in assay [2] was found to be 99.8%.

For `O=C(NO)c1cnc(N2CCc3[nH]c4ccc(-c5cccc(CN6CCCCC6)c5)cc4c3C2)nc1` [Example 91, N-hydroxy-2-{8-[3-(piperidin-1-ylmethyl)phenyl]-1,3,4,5-tetrahydro-2H-pyrido[4,3-b]indol-2-yl}pyrimidine-5-carboxamide], the inhibition at 100 µM in assay [1] turned out to be 98.6%. The “% Inhibition of HDAC @ 100 μM” value in assay [2] is reported as 100%.

`O=C(NO)c1cnc(N2CCc3[nH]c4ccc(-c5cccc(CN6CCC(CO)CC6)c5)cc4c3C2)nc1` [Example 93, N-hydroxy-2-{8-[3-((4-hydroxymethylpiperidin-1-yl)methyl)phenyl]-1,3,4,5-tetrahydro-2H-pyrido[4,3-b]indol-2-yl}pyrimidine-5-carboxamide]: in assay [1], the inhibition at 100 µM was determined as 98%. Further, the “% Inhibition of HDAC @ 100 μM” value in assay [2] was found to be 100%.

For the compound `O=C(NO)c1cnc(N2CCc3[nH]c4ccc(-c5cccc(CN6CCSCC6)c5)cc4c3C2)nc1` [Example 94, N-hydroxy-2-{8-[3-(thiomorpholin-4-ylmethyl)phenyl]-1,3,4,5-tetrahydro-2H-pyrido[4,3-b]indol-2-yl}pyrimidine-5-carboxamide], the inhibition at 100 µM in assay [1] was found to be 98.5%. For the same compound, the “% Inhibition of HDAC @ 100 μM” value in assay [2] is given as 99.7%.

For the compound `O=C(NO)c1cnc(N2CCc3[nH]c4ccc(-c5cccc(CN(CCO)CCO)c5)cc4c3C2)nc1` [Example 95, N-hydroxy-2-{8-[3-(N,N-di(2-hydroxyethyl)aminomethyl)phenyl]-1,3,4,5-tetrahydro-2H-pyrido[4,3-b]indol-2-yl}pyrimidine-5-carboxamide], in assay [1], the inhibition at 100 µM was found to be 98.2%. Further, the “% Inhibition of HDAC @ 100 μM” value in assay [2] was 100%.

`CN1CCN(Cc2cccc(-c3ccc4[nH]c5c(c4c3)CN(c3ncc(C(=O)NO)cn3)CC5)c2)CC1` [Example 96, N-hydroxy-2-{8-[3-((4-methylpiperazin-1-yl)methyl)phenyl]-1,3,4,5-tetrahydro-2H-pyrido[4,3-b]indol-2-yl}pyrimidine-5-carboxamide]: the inhibition at 100 µM in assay [1] worked out at 98.7%. Further, in assay [2], the “% Inhibition of HDAC @ 100 μM” value was 100%.

As for `O=C(NO)c1cnc(N2CCc3[nH]c4ccc(-c5cccc(CN6CCCC6)c5)cc4c3C2)nc1` [Example 97, N-hydroxy-2-{8-[3-(pyrrolidin-1-ylmethyl)phenyl]-1,3,4,5-tetrahydro-2H-pyrido[4,3-b]indol-2-yl}pyrimidine-5-carboxamide], the inhibition at 100 µM in assay [1] stood at 98.1%. In assay [2], the “% Inhibition of HDAC @ 100 μM” value turned out to be 100%.

Take `O=C(NO)c1cnc(N2CCc3[nH]c4ccc(-c5cccc(CN6CCNCC6)c5)cc4c3C2)nc1` [Example 99, N-hydroxy-2-{8-[3-(piperazin-1-ylmethyl)phenyl]-1,3,4,5-tetrahydro-2H-pyrido[4,3-b]indol-2-yl}pyrimidine-5-carboxamide]: the inhibition at 100 µM in assay [1] was determined as 93.8%. In addition, the “% Inhibition of HDAC @ 100 μM” value in assay [2] stood at 99.9%.

As for `CS(=O)(=O)N1CCN(Cc2cccc(-c3ccc4[nH]c5c(c4c3)CN(c3ncc(C(=O)NO)cn3)CC5)c2)CC1` [Example 100, N-hydroxy-2-{8-[3-((4-(methylsulfonyl)piperazin-1-yl)methyl)phenyl]-1,3,4,5-tetrahydro-2H-pyrido[4,3-b]indol-2-yl}pyrimidine-5-carboxamide], the inhibition at 100 µM in assay [1] stood at 96.6%. For the same compound, the “% Inhibition of HDAC @ 100 μM” value in assay [2] amounted to 100%.

The inhibition is the share of the control response that was lost under treatment.
